{
  "source": "patent US20210315881A1",
  "about": "“COMBINATION OF HISTONE DEACETYLASE INHIBITOR AND PROTEIN KINASE INHIBITOR AND PHARMACEUTICAL USE THEREOF” (SHENZHEN CHIPSCREEN BIOSCIENCES CO., LTD., priority 2018, published 2021)",
  "key": {"Bel-7404 cells [1]": {"system": "Bel-7404 cells", "assay": "Colony forming assay (crystal violet)", "type": "cell-based, human", "details": "Bel-7404, Chiauranib monotreatment 3 μM, 2-3 weeks", "method": "(§1) Human hepatoma cell line Bel-7402 and Bel-7404 were purchased from the Cell Resource Center of Shanghai Institutes for Biological Sciences, CAS, and routinely cultured at 37° C. under 5% CO2, in a culture medium of RPMI-1640 (Gibco) containing 10% fetal bovine serum (FBS; Gibco) and 1% Penicillin-Streptomycin (HyClone). Trypsin was purchased from Gibco. Crystal violet, RNase A (10 mg/mL) solution, propidium iodide (PI), Triton X-100 were purchased from Sangon Biotech (Shanghai) Co., Ltd. MTS cell viability assay kits, Caspase-Glo 3/7 assay kits were purchased from Promega. Nude mice were purchased from Guangdong Medical Laboratory Animal Center.\n(§2) The SMMC-7721, Bel-7404 cell lines at the log phase stage were digested by trypsin, collected and counted, then seeded in a 6-well cell culture plate at the density of 500 cells/1.8 mL in each well, and cultured at 37° C. under 5% CO2. After cultured overnight, the cells were administered according to the grouping and the final concentration dosages shown in FIG. 2 (the final volume of each well after administration was 2 mL). The culture media and drugs were replaced every 3 days to keep the culture system and the dosage for each well stable.\nAfter cultured for 2-3 weeks, when there were visible cell colonies in the culture plate, the culture was terminated. The supernatants were discarded, and the plate was washed carefully with PBS twice. […]"}, "Bel-7404 cell xenograft": {"system": "Bel-7404 cell xenograft", "assay": "Tumor cell xenograft model in nude mice", "type": "in vivo", "details": "2.5 mg/kg Chiauranib, intragastrically once a day, 33 days, vs solvent control", "method": "The cells of Bel-7404 were cultured to expend to a large amount, and maintained at a log phase state. After the number of the cells reached the required amount, they were digested with trypsin, collected, washed twice with a large amount of PBS to remove the trypsin and serum, and centrifuged at 800 rpm for 10 min at room temperature and the cell supernatants were discarded. The cells were resuspended in the FBS-free RPIM-1640 culture medium, and adjusted the cell density to 10^7/300 μL.\nUnder aseptic conditions, each nude mouse was injected subcutaneously on the back with 300 μL/injection, one injection per nude mouse. A 1 mL disposable medical syringe for injection was used, and the injection site and direction were roughly same for each nude mouse.\nOne day after cell implanting, the nude mice were randomly divided into four groups (namely, solvent control group, Chiauranib 2.5 mg/kg group, Chidamide 20 mg/kg group and the combined administration group), housed in separate cages after marked, administered in groups and tumor formation of each mouse was observed every day. […] Every 2 days, the longest diameter of the tumor (length) and the widest diameter (width) perpendicular to the longest diameter were measured with a vernier caliper. The tumor volume was calculated by the formula TS=length×(width)^2/2 and recorded. […]"}, "Bel-7404 cells [2]": {"system": "Bel-7404 cells", "assay": "Cell apoptosis by Caspase 3/7 assay", "type": "cell-based, human", "details": "Bel-7404, 3 μM Chiauranib monotreatment, 48 hours", "method": "as §1\nThe cells of Bel-7404 at the log phase stage were digested by trypsin, collected and counted. The cells were seeded in a 96-well plate at density of 2000 cells per well in a total of 18 wells. […]\nThe 96-well plates containing the treated cells were taken out of the incubator and equilibrated to room temperature. […] The […] value of each sample was measured by a luminometer. The […] value can directly reflect the proportion of apoptotic cells in each well, and can be used to calculate and compare the cell viability of the different groups."}, "Bel-7404 cells [3]": {"system": "Bel-7404 cells", "assay": "Cell cycle analysis by flow cytometry with PI staining", "type": "cell-based, human", "details": "Bel-7404, 3 μM Chiauranib, 48 hours", "method": "as §1\nThe cells of Bel-7404 at the log phase stage were digested by trypsin, collected and counted. The cells were seeded in a 6-well plate at the density of 10^6 cells per well in a total of 18 wells. […] The fixed samples were allowed to stand at 4° C. for more than 12 hours, and analyzed by the flow cytometry assay within 1 week.\nPBS, 10 mg/mL PI stock solution, 10 mg/mL RNase A solution and Triton X-100 were mixed at a ratio of 1000:5:2:1 to form a working dye solution. […] The filtrate was analyzed for cell cycles by the flow cytometry assay (each sample counted 20,000 cells)."}, "SMMC-7721 cells": {"system": "SMMC-7721 cells", "assay": "Colony forming assay (crystal violet)", "type": "cell-based", "details": "SMMC-7721, Chiauranib monotreatment 5 μM, 2-3 weeks", "method": "as §2\nAfter cultured for 2-3 weeks, when there were visible cell colonies in the culture plate, the culture was terminated. The supernatants were discarded, and the plate was washed carefully with PBS twice. 1 mL of 75% ethanol solution was added to each well to fix the cells, and the fixative solution was discarded after 15 min. Then the cells were stained for 15 min by adding 1 mL of crystal violet solution to each well, and the staining solution was washed slowly with running water and air dried. The stained positive cell colonies in each well of the culture plate were photographed to compare their density."}, "Bel-7402 cells": {"system": "Bel-7402 cells", "assay": "MTS cell viability assay", "type": "cell-based, human", "details": "Bel-7402, monotreatment, 120 hours, dose-dependent", "method": "as §1\n(§3) The Bel-7402, Bel-7404 cell lines were digested by trypsin, collected and counted, and then seeded in a 96-well cell culture plate at the density of 3,000 cells/180 μL in each well, and cultured at 37° C. under 5% CO2. […] After incubation at 37° C. for about 1 hour, the absorbance of each well was read at 490 nm wavelength with a microplate reader. The OD490-T value of each administered well and the OD490-T0 value of the negative control well after background deduction were obtained by subtracting OD490-BLK from the absorbance reading value of each well.\n(§4) The relative survival rate of the cells in each administered well was calculated according to the following formula: […]"}, "Bel-7404 cells [4]": {"system": "Bel-7404 cells", "assay": "MTS cell viability assay", "type": "cell-based, human", "details": "Bel-7404, monotreatment, 120 hours, dose-dependent", "method": "as §1, §3, §4"}},
  "data": [
    {"smiles": "COc1ccc2c(Oc3ccc4c(C(=O)Nc5ccccc5N)cccc4c3)ccnc2c1", "note": "[Chiauranib]", "values": [
      {"measurement": "formation of cell colonies", "setting": "Bel-7404 cells [1]", "value": "affected somewhat on the formation of cell colonies"},
      {"measurement": "tumor volume of tumor-bearing nude mice", "setting": "Bel-7404 cell xenograft", "value": "inhibited to a certain extent"},
      {"measurement": "proportion of apoptotic cells", "setting": "Bel-7404 cells [2]", "value": "increased the proportion of apoptotic cells to a certain extent"},
      {"measurement": "cells in G2/M phase and polyploid cells", "setting": "Bel-7404 cells [3]", "value": "slightly increased"},
      {"measurement": "formation of cell colonies", "setting": "SMMC-7721 cells", "value": "relatively significant effect on the formation of cell colonies"},
      {"measurement": "inhibitory effect on tumor cell proliferation (survival rate)", "setting": "Bel-7402 cells", "value": "a certain inhibitory effect on tumor cell proliferation"},
      {"measurement": "inhibitory effect on tumor cell proliferation (survival rate)", "setting": "Bel-7404 cells [4]", "value": "a certain inhibitory effect on tumor cell proliferation"}
    ]}
  ]
}
